The numbers were not newly measured in patent publication US11033578B2, “Nutritional supplement for growth enhancement” (Nutritional Growth Solutions LTD, priority 2013, dated 2021), which cites them from elsewhere.

The subject of data set [1] is children. The settings on record: meta analysis; 95% CI: 0.46, 2.51.
For data set [2], the system named is initially stunted infants. As to conditions: daily syrup for six months; vs placebo.

As for `[Fe]` [iron], the “increase in hemoglobin concentrations, effect size” value in data set [1] is recorded as 1.49.

As for zinc [zinc-alone], the “mean height for age Z-score” value in data set [2] is “decreased to a greater extent than placebo”.
